Source: ChEMBL document CHEMBL1131749, “Landomycin A inhibits DNA synthesis and G1/S cell cycle progression” (1999)

Assays:
Format in all cases: functional
Mus musculus [1] = organism: Mus musculus; test: Inhibition of uptake of [3H]thymidine into DNA by murine smooth cells at a concentration of 200 nM after 24 hours
Mus musculus [2] = organism: Mus musculus; test: Inhibition of uptake of [3H]-thymidine into DNA by murine smooth cells at a concentration of 80 nM after 20 hours
Mus musculus [3] = organism: Mus musculus; test: Inhibition of uptake of [3H]thymidine into DNA by murine smooth cells at a concentration of 20 nM after 16 hours
Mus musculus [4] = organism: Mus musculus; test: Inhibition of uptake of [3H]thymidine into DNA by murine smooth cells at a concentration of 200 nM after 16 hours
Mus musculus [5] = organism: Mus musculus; test: Inhibition of uptake of [3H]thymidine into DNA by murine smooth cells at a concentration of 20 nM after 20 hours
Mus musculus [6] = organism: Mus musculus; test: Inhibition of uptake of [3H]thymidine into DNA by murine smooth cells at a concentration of 80 nM after 24 hours
Mus musculus [7] = organism: Mus musculus; test: Inhibition of uptake of [3H]thymidine into DNA by murine smooth cells at a concentration of 20 nM after 24 hours
Mus musculus [8] = organism: Mus musculus; test: Inhibition of uptake of [3H]thymidine into DNA by murine smooth cells at a concentration of 200 nM after 20 hours
Mus musculus [9] = organism: Mus musculus; test: Inhibition of uptake of [3H]thymidine into DNA by murine smooth cells at a concentration of 80 nM after 16 hours

Structure (SMILES): Cc1cc(O)c2c(c1)C[C@@H](O)C1=C2C(=O)c2c(O)ccc(O[C@H]3C[C@@H](O)[C@H](O[C@H]4C[C@@H](O[C@H]5CC[C@H](O[C@H]6C[C@@H](O)[C@H](O[C@H]7C[C@@H](O[C@H]8CC[C@H](O)[C@H](C)O8)[C@H](O)[C@@H](C)O7)[C@@H](C)O6)[C@H](C)O5)[C@H](O)[C@@H](C)O4)[C@@H](C)O3)c2C1=O [LANDOMYCIN A]
- Inhibition (Mus musculus [1]): 20000 c.p.m./Abs
- Inhibition (Mus musculus [2]): 30000 c.p.m./Abs
- Inhibition (Mus musculus [3]): 10000 c.p.m./Abs
- Inhibition (Mus musculus [4]): 0 c.p.m./Abs
- Inhibition (Mus musculus [5]): 45000 c.p.m./Abs
- Inhibition (Mus musculus [6]): 60000 c.p.m./Abs
- Inhibition (Mus musculus [7]): 65000 c.p.m./Abs
- Inhibition (Mus musculus [8]): 5000 c.p.m./Abs
- Inhibition (Mus musculus [9]): 5000 c.p.m./Abs
